Experimental data from patent US5077195A, “Polypeptides complementary to peptides or proteins having an amino acid sequence or nucleotide coding sequence at least partially known and methods of design therefor” (Board of Reagents, The University of Texas System, priority 1986, dated 1991).
“And” between values parts separate entries of the source, which are not always exact repeats. Equal values may be shown once. Where no end group is shown, it is not given here.

What was measured:
angiotensin II receptors = experiment: Binding of [^125 I] angiotensin II to isolated hepatic receptor; set-up: species or system Rabbit; details: concentration that inhibits binding of radiolabelled angiotensin II by 50%; 0.25 nM label; 60 minutes at 20° C.
Protocol: Rabbit livers were homogenized, and were centifuged in order to isolate particles sedimenting between 1,000 and 100,000 xg. Binding activity was solublized with 1% digitonin, followed by ammonium sulfate fractionation between 49 and 65% satuation followed by DEAE- cellulose chromatography at pH 7.5 using a linear gradient between 0.0 and 0.3M KCl.
The reaction is initiated by addition of the receptor and samples are incubated for 60 minutes at 20° C. The reaction is terminated with 1 ml of cold 0.5% charcoal/0.05% Dextran in 100 mM Tris-HCl, pH 7.5.
The complete system under these conditions regularly yields about 10,000 cpm of bound radioactivity.

HTCA = experiment: ELISA binding of immunoglobulins to HTCA-coated plates; details: Plates coated with HTCA
Protocol: (§1) Two peptides complementary to ACTH, described in Examples 1B and 1C as HTCA and 3'-5' HTCA, were each coupled to Keyhole Limpet Hemocyanin (KLH) with glutaraldeyde (1 mg peptide, 1 mg KLH, 30 mM glutaraldehyde for 30 minutes at room temperature followed by dialysis) to prepare antigens for rabbit immunization. Two rabbits were injected separately with 250 ug of peptide-KLH antigens weekly for four weeks. Each rabbit was bled biweekly for three weeks following the last injection. Antibodies representing the total immunoglobulin from serum of each rabbit was purified by precipitation from serum with 50% saturated ammonium sulfate at 4° C. followed by standard ion exchange chromatography on a DEAE column.
To examine the binding of each of the immunoglobulins to each of the peptides, enzyme-linked immunosorbant assays were performed. In these assays, one of the complementary peptides was coated onto polycarbonate plates in a carbonate coating buffer at pH 9.0 overnight. Unbound peptide was removed by washing three times with phosphate buffered saline (PBS)-TWEEN 20. Various amounts of immunoglobulins were added to peptide-coated wells in PBS-TWEEN 20 solution and incubated for one hour. Unbound immunoglobulin was removed by washing with PBS-TWEEN 20. To each well was added a 1:300 dilution of goat anti-rabbit IgG coupled to alkaline phosphatase enzyme. After one hour the wells were washed with PBS-TWEEN 20 to remove unbound secondary antibodies. The amount of remaining secondary antibody was determined by reacting p-nitrophenyl phosphate with the remaining aklaline phosphatase enzyme for 15 minutes, stopping the reaction with 3M NaOH, and measuring nitrophenol produced spectrophotometrically at 490 nm.

I^125 ACTH (1-39) = molecular target: T1, I^125 ACTH (1-39) (Homo sapiens, UniProt P01189); experiment: ^125 I-ACTH binding to peptide-coated microtiter wells
T1 construct: I^125 ACTH (1-39) (New England Nuclear Boston, MA); purchased New England Nuclear (Boston, MA)
T1 sequence (P01189 138-176 limits assumed): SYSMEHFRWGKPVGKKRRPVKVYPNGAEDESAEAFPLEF
Protocol: Utilizing techniques described in Example 1B, polyvinyl microtiter wells were coated with 3'-5' HTCA from a 1 mM solution thereof or with BSA.
The BSA and 3'-5' HTCA coated wells were washed and then treated with one of three solutions of I^125 ACTH (1-39) (New England Nuclear Boston, MA) having different concentrations. After a forty five minute incubation period the solution was removed and the microtiter wells extensively washed. The microtiter wells were separated and assayed for iodine^125content in a Beckman Gamma 5500 gamma counter. Bound ^125 I-ACTH was measured in duplicate at three concentrations in the absence and presence of excess unlabelled ACTH.
Utilizing the cRNA sequence and HTCA sequence shown in Table 8 of Example 1A, a series of peptides having a carboxy-terminal portion of the HTCA amino acid were synthesized. A pentamer (5-mer) contained the amino acid sequence: H2 N-Phe-His-Gly-Val-Arg-COOH. A decamer (10-mer) contained the amino acid sequence: H2 N-[…]COOH. A twenty membered peptide (20-mer) contained the amino acids sequence: H2 N-[…] Val-Arg-COOH. Each of thes peptides was used to coat microtiter wells and the coated wells tested for the ability to bind ^125 I-ACTH as described in Example 1C.
A 24-mer HTCA variant (R-HTCA) with reversed amino acid sequence directionality (amino-terminal and carboxy-terminal ends being reversed) was synthesized and had the following sequence: H2 N-[…] Arg-His-Leu-His-Val-Gly-COOH. The well-coating and ^125 I-ACTH binding procedures were performed as described in Example 1-C and the resultant data shown in Table 11.

3'-5' HTCA = experiment: ELISA binding of immunoglobulins to 3'-5' HTCA-coated plates; details: Plates coated with 3'-5' HTCA; antibody 0.11 mg/ml
Protocol: as §1
To examine the binding of each of the immunoglobulins to each of the peptides, enzyme-linked immunosorbant assays were performed. In these assays, one of the complementary peptides was coated onto polycarbonate plates in a carbonate coating buffer at pH 9.0 overnight. Unbound peptide was removed by washing three times with phosphate buffered saline (PBS)-TWEEN 20. […] The amount of remaining secondary antibody was determined by reacting p-nitrophenyl phosphate with the remaining aklaline phosphatase enzyme for 15 minutes, stopping the reaction with 3M NaOH, and measuring nitrophenol produced spectrophotometrically at 490 nm.

^125 I-ACTH = molecular target: T2, ^125 I-ACTH (Homo sapiens, UniProt P01189); experiment: Solid-phase binding of ^125 I-ACTH to 5'-3' and 3'-5' complementary peptides
T2 construct: ACTH plates+immunized rabbit immunoglobulin
T2 sequence (P01189 138-176 limits assumed): T1 sequence (P01189 138-176 limits assumed)
Protocol: A solid-phase binding assay was used to determine the ability of both the 5'-to-3' and the 3'-to-5'-complementary-RNA-strand peptides (see Examples 1A and 1C) to bind ^125 I-ACTH. The peptides were diluted in phosphate-buffered saline (140 mM-NaCl/3 mM-KCl/0.1% NaN3 /20 mM-phosphate buffer, pH 7.4) to 2 mg/ml, and 0.2 ml/well was placed into poly(vinyl chloride) micro-titre plates (Becton and Dickinson, Oxnard, CA, U.S.A.). After 18 h at 4° C., unbound peptide was removed by washing three times with phosphate-buffered saline containing 0.1% bovine serum albumin (Sigma Chemical Co., St. Louis, MO, U.S.A.). ^125 I-ACTH was diluted to various concentrations with phosphate-buffered saline containing 0.1% bovine serum albumin and incubated in peptide-coated wells for 60 minutes at 4° C. […] After incubation, unbound radiolabel was washed out with phosphate-buffered saline containing 0.1% bovine serum albumin, and the radioactivity of individual wells was measured by gamma-radiation counting. The amount of specifically bound radioactivity was determined by blocking ^125 I-ACTH binding with unlabelled ACTH. Additional controls included coating wells with insulin or bovine serum albumin (2 mg/ml) before the addition of the ^125 I-ACTH.

ID50 (angiotensin II receptors) | Absorbance at 490 nm (HTCA; antibody 0.04 mg/ml) | Absorbance at 490 nm (HTCA; antibody 0.11 mg/ml) | Absorbance at 490 nm (HTCA; antibody 0.3 mg/ml) | Absorbance at 490 nm (HTCA; antibody added 0.012 mg/ml) | binding of ^125 I-ACTH to coated wells (in words) (I^125 ACTH (1-39)) | Bound CPM - ^125 I-ACTH (I^125 ACTH (1-39); 1:3 dilution ^125 I-ACTH) | Bound CPM - ^125 I-ACTH (I^125 ACTH (1-39); 1:3 dilution ^125 I-ACTH, + Excess ACTH) | Bound CPM - ^125 I-ACTH (I^125 ACTH (1-39); 1:9 dilution ^125 I-ACTH, + Excess ACTH) | Bound CPM - ^125 I-ACTH (I^125 ACTH (1-39); conc ^125 I-ACTH) | Bound CPM - ^125 I-ACTH (I^125 ACTH (1-39); conc ^125 I-ACTH, + Excess ACTH) | Absorbance at 490 nm (3'-5' HTCA) | effectiveness in binding ACTH (in words) (^125 I-ACTH) | Substance
3,100 nM | – | – | – | – | – | – | – | – | – | – | – | – | Ac-KGVYIHAL-NH2 [CCA-AII (Ac, Am), Ac--LYS--GLY--VAL--TYR--ILE--HIS--ALA--LEU--Am]
– | 0.24 ± 0.08 | 0.37 ± 0.09 | 0.91 ± 0.11 | 0.08 ± 0.04 | binds to coated 3'-5' HTCA | 601 CPM and 590 CPM | 287 CPM and 299 CPM | 191 CPM and 183 CPM | 1819 CPM and 1716 CPM | 616 CPM and 615 CPM | 0.89 ± 0.23 | equally effective in binding ACTH | RMRYLVKATPFGHPFFAAGHFHMG [3'-5' HTCA]
